In patent US5977144A (priority 1997, dated 1999):
“Also recorded” adds a separate entry of the source. Read-outs that look alike come from different tables or passages of the source.

Key:
[1] = biological target: rat alpha4beta2 receptor (Rattus norvegicus, UniProt P09483+P12390); assay: Activation of alpha4beta2 receptors expressed in Xenopus oocytes; type: cell-based; details: read-out: alpha4beta2 activation: % response observed with 10 μM acetylcholine
[2] = tested on: PC12 cells; type: cell-based
Description: PC12 cell-culture methods were modified from Greene and Tischler (1976). Cells were plated at 30-40% confluence and grown in Dulbecco's Modified Eagle Medium containing 10% heat-inactivated horse serum, 5% fetal bovine serum, 100 units/ml penicillin, 100 μg/ml streptomycin and 0.5 mM 1-glutamine. Cultures were maintained at 37° C., […] /6% CO2 and 90-92% humidity in culture plates pre-coated with poly-1lysine (10 g/L). Cultures were maintained for 7 days in serum-supplemented medium to which 100 ng/ml rat 2.5S NGF was added at day 1. On day 7, conditioned medium was replaced serum-free medium containing specified drugs. Four days later, cell density was estimated using the NIH Image program version 1.47 and number of neurite-expressing cells counted manually in blind fashion as described previously (Martin et al., 1994). A Nikon inverted microscope (100× magnification) was attached to a Mac II computer via a monochrome video camera (Cohu, Inc., San Diego, Calif.). Four random areas were counted per plate and there were 4 plates per treatment group, unless otherwise indicated. Neurites were defined as processes at least 2× the length of the perikaryon. To assess the reliability of the image analyses, a reticle was used for direct quantification of cells in the same view as the one analyzed in random samples.
PC12 cells were differentiated for 1 week with NGF. Drugs were administered for the 4 day interval after removal of serum and NGF. Neuites were counted and expressed as the mean±SEM of at least 3 plates/group.

[3] = biological target: T1, alpha4beta2 receptor (cytisine binding, rat brain membranes) (Rattus norvegicus, UniProt P09483+P12390); assay: biochemical; details: 1 μM (Table 2); read-out: alpha4beta2 binding: % inhibition of cytistine binding
T1 construct: from tissue; host or cells: rat brain membranes
T1 sequence (P09483 31-630): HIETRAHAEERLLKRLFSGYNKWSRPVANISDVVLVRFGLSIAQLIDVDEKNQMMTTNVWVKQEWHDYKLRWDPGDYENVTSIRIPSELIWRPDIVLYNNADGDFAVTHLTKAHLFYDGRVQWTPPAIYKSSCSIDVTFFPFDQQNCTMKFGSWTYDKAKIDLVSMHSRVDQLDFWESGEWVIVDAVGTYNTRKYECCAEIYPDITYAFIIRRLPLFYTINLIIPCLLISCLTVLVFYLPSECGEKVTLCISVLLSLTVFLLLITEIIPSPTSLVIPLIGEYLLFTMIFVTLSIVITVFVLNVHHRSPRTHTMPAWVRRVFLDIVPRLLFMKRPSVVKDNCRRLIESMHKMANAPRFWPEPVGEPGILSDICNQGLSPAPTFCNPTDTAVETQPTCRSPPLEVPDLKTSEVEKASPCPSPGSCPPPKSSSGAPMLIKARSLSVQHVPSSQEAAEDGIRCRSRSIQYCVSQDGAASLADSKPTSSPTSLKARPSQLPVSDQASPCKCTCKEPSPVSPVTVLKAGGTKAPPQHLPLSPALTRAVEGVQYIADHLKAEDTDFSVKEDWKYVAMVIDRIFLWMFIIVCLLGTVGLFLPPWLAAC
T1 sequence (P12390 25-500): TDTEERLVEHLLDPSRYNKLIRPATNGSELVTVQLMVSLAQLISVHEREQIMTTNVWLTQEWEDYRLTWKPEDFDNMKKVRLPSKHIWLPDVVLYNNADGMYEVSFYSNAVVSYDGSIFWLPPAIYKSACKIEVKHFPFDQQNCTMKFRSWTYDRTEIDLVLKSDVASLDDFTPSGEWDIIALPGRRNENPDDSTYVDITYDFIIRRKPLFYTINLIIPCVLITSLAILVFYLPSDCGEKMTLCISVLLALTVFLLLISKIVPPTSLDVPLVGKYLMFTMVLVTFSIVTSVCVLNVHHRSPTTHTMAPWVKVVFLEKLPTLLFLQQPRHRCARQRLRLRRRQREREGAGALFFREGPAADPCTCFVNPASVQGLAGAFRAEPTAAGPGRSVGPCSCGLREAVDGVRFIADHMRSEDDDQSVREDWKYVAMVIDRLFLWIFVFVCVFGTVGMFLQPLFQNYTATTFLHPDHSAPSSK
Text: Further, the cinnamylidene-anabaseines displaced high affinity cytisine binding to rat brain membranes with lower affinity than other types of benzylidene-anabaseines. These observations are consistent with the cinnamylidene-anabaseines having some selectivity for alpha7 receptor subtypes over other types of nicotinic receptors, especially alpha4beta2 receptors, based on the types of receptors to which alpha-bungarotoxin and cytisine bind to in brain.

[4] = tested on: NB Lesion; assay: NB Lesion (Table 4); type: in vivo
[5] = tested on: NMDA receptor; assay: High affinity [3H]MK801 binding to rat brain membranes; details: concentrations up to 30 μM
[6] = tested on: rat primary neocortical neurons; details: Shimohama et al., in press; cited from earlier work
[7] = tested on: animal models of learning and memory; details: animals; cited from earlier work
[8] = tested on: fimbrial transections; details: Meyer et al., in press; cited from earlier work
[9] = tested on: rat; assay: Focal ischemia infarct size in rats; type: in vivo
Description: FIG. 3. […] Rats received a 30 minute ischemia attack through tying of their common carotid; the amount of cell death (proportional to Infarct Size) was determined 24 hours later. Some animals received the benzylidene-anabaseine compound DMXB (1 mg/kg IP, salt weight) 1 hour before ligation, or the nicotinic antagonist mecamylamine (0.5 mg/kg IP), or both mecamylamine and DMXB, or DMXB 5 minutes after the ligation.
Male Sprague Dawley albino male rats (250-300 g) were anesthetized with a subcutaneous injection of ketamine, xylazine, and acepromazine (3:3:1 mixture, 0.7 cc/kg). Atropine (0.4 mg/kg IP) was injected several min prior to dissection of the carotid artery from the vagus. The internal carotid artery (ICA) was dissected until its proximal bifurcation into the terminal ICA and pterygopalatine arteries were clearly defined. The pterygopalatine artery was clipped parallel to and flush with the terminal ICA. Another clip was applied to the common carotid artery (CCA). The distal aspect of the external carotid artery (ECA) was coagulated and a straight aneurysm clip was applied 4 mm distal to the proximal ICA bifurcation. A suture was passed through the arteriotomized ECA stump into the ICA until the tip was resting against the aneurysm clip. The suture was removed 30 min later, with body temperature maintained between 36.5-37.5° C. The ECA stump was coagulated with bipolar electrocautery. Clips were removed and the wound was irrigated with saline prior to suturing.
Rats were euthanised 24 hours post-infarction and their brains removed and sectioned coronally (2 mm). Sections were placed into a 2% solution of 2,3,5-triphyenyl-tetrazolium cholide (Sigma Chemical Co., St. Louis. Mo.) for 20 minutes at 37° C. The sections were removed to a petri dish and covered with 10% formaldehyde solution. The outline function of the NIH Image computer program (version 1.47) was used to estimate the infarcted and total brain areas for each section. Infarct size was calculated as percent of total brain area.

[10] = tested on: rat; details: in vivo
Description: Eleven male Sprague-Dawley rats were first trained to press the left lever in a two lever operant conditioning chamber. They had limited access to food for 23 hours prior to the first training session and then received 20 grams of food for the remainder of the study. Once subjects reliably pressed the left lever, a catheter was surgically implanted into the right jugular vein. The catheter consisted of three separate pieces of tubing, a 37 mm length of silicon rubber tubing which entered the circulatory system (Silastic Medical Grade tubing), a 65 mm length of polyethylene tubing (Intramedic, PE10) and a 170 mm length of polyethylene tubing with the same internal diameter (Intramedic, PE20). The catheter exited between the scapulae and could be hooked up to a swivel which itself was connected to a pneumatic syringe. […] Once subjects had recovered from surgery they were trained to complete a fixed ratio 2 schedule (FR 2) to activate the pneumatic syringe. […] Each daily experimental session lasted 50 minutes. After several sessions under these conditions, subjects received an intraperitoneal (IP) injection of physiological saline (1 ml/kg), 15 min prior to the start of the self-administration session. The next day subjects were IP injected with 8 mg/kg of GTS-21, also 15 minutes before the beginning of the session.

[11] = tested on: PC12 cells; details: Martin et al., 1994, cited from earlier work
[12] = biological target: rat alpha7 receptor (Rattus norvegicus, UniProt Q05941); details: cited from earlier work
rat alpha7 receptor, sequence (Q05941 23-502): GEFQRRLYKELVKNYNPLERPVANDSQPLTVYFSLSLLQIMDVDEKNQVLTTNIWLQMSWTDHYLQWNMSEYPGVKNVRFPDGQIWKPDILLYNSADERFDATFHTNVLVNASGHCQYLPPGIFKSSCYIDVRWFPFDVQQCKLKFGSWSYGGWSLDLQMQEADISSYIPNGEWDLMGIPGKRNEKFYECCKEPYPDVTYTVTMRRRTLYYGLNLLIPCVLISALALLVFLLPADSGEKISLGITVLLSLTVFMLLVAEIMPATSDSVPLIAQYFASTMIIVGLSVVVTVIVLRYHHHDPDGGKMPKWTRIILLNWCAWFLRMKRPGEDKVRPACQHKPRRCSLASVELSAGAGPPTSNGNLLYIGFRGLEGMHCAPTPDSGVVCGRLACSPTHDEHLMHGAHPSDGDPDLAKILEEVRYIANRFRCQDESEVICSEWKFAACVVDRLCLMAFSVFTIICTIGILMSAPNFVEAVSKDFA

rat alpha4beta2 receptor, sequence (P09483 31-630): as the sequence (P09483 31-630) above
rat alpha4beta2 receptor, sequence (P12390 25-500): as the sequence (P12390 25-500) above

SMILES: COc1ccccc1/C=C/C=C1\CCCN=C1c1cccnc1 [2-MeOCA, E,E-3-(2-Methoxycinnamylidene)anabaseine]
- Emax [1]: < 3%
- neurite protection during NGF-deprivation (in words) ([2]; 10 μM): Neither 2-MeOCA nor 4-MeOCA elicited neurite-protection
- Neurite Counts ([2]; 10 μM (NGF 100 ng/ml), 4 days after removal of serum and NGF, mean±SEM, * p<0.05): 213 ± 26
- inhibition at 1 µM [3]: 29%

SMILES: COc1ccc(/C=C2\CCCN=C2c2cccnc2)c(OC)c1 [DMXB, 3-(2,4-Dimethoxybenzylidene) anabaseine]
- NB Lesion [4]: + (≥ 0.5)
- interference with high affinity [3H]MK801 binding (in words) [5]: did not interfere
- activity against NMDA-receptor activation (in words) [6]: neuroprotective activity
- memory-related performance (in words) [7]: enhances performance in several spatial and non-spatial memory-related paradigms in rats and rabbits
- activity against fimbrial transections in vivo (in words) [8]: neuroprotective activity
- protection against infarct / cell loss, given before ischemia (in words) ([9]; 1 mg/kg IP before ischemia): protected principally in the posterior infarct area; also recorded: protected against cell loss; also recorded: did not have as much cell loss
- infarct size (mean value) ([9]; coronal section 5 mm posterior to frontal pole, saline 28%): 19%
- protection against infarct, given during or after start of ischemia (in words) ([9]; during 30 min ischemic insult): ineffective
- nicotine self-administration (in words) [10]: inhibits nicotine self-administration; also recorded: less likely to self-administer nicotine
- activity against trophic factor deprivation in PC12 cells (in words) ([11]; listed as GTS 21): sufficient to reduce this neurotoxicity
- activity against trophic factor deprivation in PC12 cells (in words) ([11]; listed as GTS-21): neuroprotective activity
- α7 agonist activity (in words) ([12]; background/literature): weak partial agonist activity
- selectivity α7 over α4β2 / other nicotinic subtypes (in words) ([12]; literature): selective as an agonist for α7 versus other nicotinic receptor subtypes
- activity of ACh at α7 receptors ([12]; partial agonist): about 20%
